From patent US5126057A, “Disinfecting with N,N'-dihaloimidazolidin-4-ones” (Auburn Research Foundation, priority 1991, dated 1992)
Where two headings read alike, the source gives them in different places.

Columns and labels:
[1] = cited from earlier work
[2] = Formation of N-halogenated imidazolidin-4-ones in situ (loss of free chlorine, DPD/FAS); format: physicochemical; conditions: for reaction with free chlorine: pH 7.0, 24°±1° C.
Method: An aqueous solution containing 50.0 milligrams (3.52×10^-4 moles) of 2,2,5,5-tetramethylimidazolidin-4-one synthesized as in example 2 in 50.0 milliliters of 0.05 molar sodium phosphate buffer (pH 7.0) was prepared. The buffer solution had been made halogen demand-free by chlorination with 3 milligrams per liter total chlorine from sodium hypochlorite followed by exposure to direct sunlight for two days until no titratable chlorine remained. A halogen demand-free solution of free chlorine buffered to pH 7.0 was prepared by bubbling chlorine gas into a flask containing the demand-free buffered water. Then 19 milliliters of the solution containing 1.31 grams per liter of free chlorine (7.02×10^-4 moles of positive halogen) was added to the solution containing the 2,2,5,5-tetramethylimidazolidin-4-one at ambient temperature (24°±1° C.) while stirring.
The reaction rate for formation of 1,3-dichloro-2,2,5,5-tetramethylimidazolidin-4-one and/or 1-chloro-2,2,5,5-tetramethylimidazolidin-4-one in situ was then followed kinetically by observing the loss of free chlorine concentration from the reaction mixture as a function of time. The concentration of free chlorine was monitored by withdrawing aliquots from the mixture periodically and titrating them by the DPD/FAS (N,N-diethyl-p-phenylenediamine/ferrous ammonium sulfate) method as described in "Standard Methods for the Examination of Water and Wastewater, 16th edition, American Public Health Association, Washington, D. C., 1985, pp. 306-309. The moles of free chlorine present in the reaction mixture declined from 7.02×10^-4 at the time of mixing to 4.45×10^-5 after only 48 seconds representing 94% reaction. Then further declination of free chlorine occurred to 3.63×10^-5 moles after 2.87 minutes, 3.48×10^-5 moles after 6.07 minutes, and 3.32×10^-5 moles after 114.6 minutes. Thus after 114.6 minutes 95% of the reaction had occurred. At this time 1.76×10^-5 additional moles of 2,2,5,5-tetramethylimidazolidin-4-one was added, and the concentration of free chlorine declined to zero by 140 minutes total elapsed time.

[3] = Stability of unhalogenated 2,2,5,5-tetramethylimidazolidin-4-one in water exposed to direct sunlight; format: physicochemical
Method: A solution containing 142 milligrams (1.00×10^-3 moles) of 2,2,5,5-tetramethylimidazolidin-4-one (Compound 6) in 1.0 liter of demand-free water buffered to pH 7.0 was prepared. 100 milliliter samples (1.00×10^-4 moles of Compound 6) of this solution were placed in each of five 100 milliliter volumetric flasks. The flasks were sealed with ground glass stoppers and placed in direct sunlight on the roof of the chemistry building at Auburn University during the period Jul. 6, 1989 to Aug. 2, 1989. No effort was made to control the temperature in this experiment; it was typically 33° C. during this period. […]
After allowing the reaction of Compound 6 with free chlorine to form a mixture of 1,3-dichloro-2,2,5,5-tetramethylimidazolidin-4-one (Compound 1) and 1-chloro-2,2,5,5-tetramethylimidazolidin-4-one (Compound 3) to proceed with stirring over a period of 1 hour, aliquots were analyzed for total and free chlorine using the DPD-FAS procedure mentioned in example 8. The combined chlorine concentration was assumed to be the difference between the determined total and free chlorine concentrations, and to represent the amounts of compounds 1 and 3 forming during the reaction.

CC1(C)COC(=O)N1Cl [3-chloro-4,4-dimethyl-2-oxazolidinone]
hydrolysis equilibrium constant ([1]; reported by Williams, Elder and Worley, 1988): 2.3×10^-9

CC1(C)NC(=O)C(C)(C)N1 [2,2,5,5-tetramethylimidazolidin-4-one]
reaction with free chlorine ([2]; 48 seconds): 94% | reaction with free chlorine ([2]; 114.6 minutes): 95% | time for in situ formation of halogenated imidazolidin-4-ones ([2]; free chlorine added to pH 7.0 demand-free water): less than 1 minute

O=c1n(Cl)c(=O)n(Cl)c(=O)n1Cl [trichloroisocyanuric acid]
hydrolysis equilibrium constant ([1]; reported by G. D. Nelson, Kirk-Othmer 1979): 1.6×10^-4

CC1(C)NC(=O)C(C)(C)N1 [Compound 6, 2,2,5,5-tetramethylimidazolidin-4-one]
variation of combined chlorine concentration ([3]; 4 weeks direct sunlight, DFW pH 7.0, typically 33° C., then reacted with free chlorine): ≤ 6% | time for which stable in direct sunlight ([3]; DFW, pH 7.0, direct sunlight): at least 4 weeks
